Data as given in patent US5047397A, “Linear analogs of atrial natriuretic peptides” (California Biotechnology Inc., priority 1988, dated 1991).
“Also recorded” adds a separate entry of the source. Where a SMILES comes first, the peptide text is derived from it. Bridges are numbered along the chain shown (N, C = ends). Where no end group is shown, it is not given here.

How the values were obtained:
[1] = target: T1, specific ANP receptor sites on BASM or BAE cells (Bos taurus, UniProt P10730); experiment: Competitive displacement receptor binding of (125I)-rANP(126-150) on cultured cells; parameters: species or system bovine
T1 construct: specific receptor sites on BASM or BAE cells; endogenous in cells; host or cells: cultured BASM and BAE cells
T1 sequence (P10730 42-537): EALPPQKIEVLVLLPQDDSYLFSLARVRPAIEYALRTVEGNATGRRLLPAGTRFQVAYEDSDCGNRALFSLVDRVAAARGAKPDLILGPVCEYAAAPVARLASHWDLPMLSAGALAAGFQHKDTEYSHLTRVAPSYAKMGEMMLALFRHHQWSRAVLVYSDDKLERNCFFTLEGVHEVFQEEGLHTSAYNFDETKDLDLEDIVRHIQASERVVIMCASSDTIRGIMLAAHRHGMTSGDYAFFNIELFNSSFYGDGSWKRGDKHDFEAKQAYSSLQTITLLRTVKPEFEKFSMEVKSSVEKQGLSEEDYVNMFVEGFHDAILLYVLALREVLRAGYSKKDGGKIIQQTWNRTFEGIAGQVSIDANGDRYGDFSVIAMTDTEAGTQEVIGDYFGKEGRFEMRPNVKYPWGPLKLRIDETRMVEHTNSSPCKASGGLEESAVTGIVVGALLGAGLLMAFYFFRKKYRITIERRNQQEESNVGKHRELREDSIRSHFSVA
From the text: Analogous "competitive displacement" receptor binding assays are considered commonplace in the art for examining specific ligand-receptor interactions.
Assuming these ANP analogs act at one or more ANP receptor sites, then increased receptor affinity should reflect increased biological potency.

anesthetized rats [2] = experiment: Diuresis in anesthetized rats; assay type: in vivo, rat; settings: infused at 5 mcg/min via femoral vein; versus baseline; FIG. 3
Method: In one set of examples, cannulae were placed in the left and right ureters and femoral vein of anesthetized rats and urine was collected from the ureters. Analog peptides were administered via the femoral vein. Prior to infusing the analog peptides, saline was infused for 30 minutes, urine was collected for 6 five-minute baseline periods and urine volume was determined gravimetrically. Following these baseline collection periods, various analog peptides were infused for 30 or 60 minutes and urine volume was measured in five-minute periods during infusion and for 60 minutes following infusion (at which time rats were returned to saline). Data was examined by averaging urine flow rates for six five-minute baseline control periods immediately preceding infusion, and comparing values during and after administration of peptides with the "baseline" control values. Responses to peptides are thus evaluated and plotted as the percent of baseline control responses. Specific examples are shown in FIGS. 3A-H. The error bars at the beginning of the graphs represent baseline values +standard deviations. Responses to peptides that are substantially above baseline ±SD can thus be interpreted as being statistically significant increases.

[3] = test system: pentobarbital-anesthetized dogs; experiment: Diuresis and natriuresis in anesthetized dogs; assay type: in vivo, dog
Method: In these examples, cannulae were placed in the left and right ureters and femoral vein of anesthetized dogs and urine was collected from the ureters. Analog peptides were administered via the femoral vein. Prior to infusing analog peptides, saline was infused for 30 minutes and urine was then collected for three ten-minute collection periods. Urine volume was determined gravimetrically and urine sodium was determined photometrically.
Following these three baseline collection periods, the selected analog peptides were infused for 60 minutes and urinary flow was measured for an additional 60 minutes following infusion. During infusion (60 minutes) and recovery (60 minutes), ten-minute collection periods were obtained. Control animals which received only saline were studied in parallel.
Data were examined by comparing urine flow rates for dogs infused with peptides AP101 (3 mcg/kg/min), AP306 (3 mcg/kg/min), AP324 (3 mcg/kg/min),or AP314 (1 mcg/kg/min) against control animals infused with saline.

anesthetized rats [4] = experiment: Blood pressure responses in anesthetized rats; assay type: in vivo, rat; settings: infusion 733 p mol/kg/min

| Compound | Ki(app) ([1]; concentration of unlabeled peptide displacing 50% of maximal binding of 0.5 nM (125I)-rANP(126-150), BASM or BAE cells) | prevention of (125I)-rANP(126-150) binding to BASM cell-associated receptors (FIG. 2) ([1]; increasing concentrations of unlabeled peptide, BASM cells) | urine flow rate (urine volume), diuretic response (anesthetized rats [2]) | Peak Urine Flow Rate V ([3]; 3 mcg/kg/min infused 60 min, *P<0.05, control 0.61) | urine flow rate and urinary sodium excretion (diuresis, natriuresis), in words ([3]; 3 mcg/kg/minute infusion) | Ki ([1]; Table 2A, unit not given, in nM) | Blood Pressure (anesthetized rats [4]) |
| --- | --- | --- | --- | --- | --- | --- | --- |
| AFGGRIDRIGA-NH2 [AP101, A--F--G--G--R--I--D--R--I--G--A--NH2] | 2.63 nM | effectively prevent | induce diuresis; also recorded: significantly increased | 1.77 mL/min | cause diuresis; also recorded: significantly increased | – | – |
| CC[C@H](C)[C@@H]1NC(=O)[C@H](CCCNC(=N)N)NC(=O)[C@H](CC(=O)O)NC(=O)[C@H]([C@@H](C)CC)NC(=O)[C@H](CCCNC(=N)N)NC(=O)CNC(=O)CNC(=O)[C@H](Cc2ccccc2)NC(=O)[C@@H](NC(=O)[C@H](CO)NC(=O)[C@H](CO)NC(=O)[C@@H](N)CCCNC(=N)N)CSSC[C@@H](C(=O)N[C@@H](CC(N)=O)C(=O)N[C@@H](CO)C(=O)N[C@@H](Cc2ccccc2)C(=O)N[C@@H](CCCNC(=N)N)C(=O)N[C@@H](Cc2ccc(O)cc2)C(=O)O)NC(=O)[C@H](C)NC(=O)CNC1=O [AP20, R--S--S--C--F--G--G--R--I--D--R--I--G--A--C--N--S--F--R--Y] (H-RSSCFGGRIDRIGACNSFRY-OH; disulfide 4-15) | – | – | significantly increased | – | – | 7.50 | -34 ± 3 |
